Data published in US4271189A, “Lithium derivatives of taurine having reinforced neuro-muscular activity” (Les Laboratoires Meram, priority 1977, dated 1981).
Structures can show the parent of a compound that is named as a salt. Where two headings read alike, the source gives them in different places.

Legend:
[1] = Neuro-muscular activity in the six pharmacological tests (summary); assay type: in vivo; conditions: mouse and rat
Description: (§1) 1. The investigation behaviour of the mouse was studied by the "Holed board" test (Boissier and Simon; Arch. Int. Pharmacodyn. 1964, 147, 3-4),
(§2) 2. The study of the spontaneous motility of the mouse was made by using Boissier's photoelectric actimeter.
(§3) 3. The study of the motility of the mice was also made by using Boissier's photoelectric actimeter, after amphetamine-acetyl-taurinate interaction according to the invention: the mice are treated simultaneously with 10 mg/kg (IP) of dextrorotatory amphetamine and with an optimal dose of acetyltaurinate.
(§4) 4. A study of the hypothermia in the mouse was effected by determining the rectal temperature of the mice 30 mins. before the intraperitoneal administration of the product, at the moment of this administration, then 30 mins., 1 hour, 2, 3 and 4 hrs. after the injection of the product.
(§5) 5. The study of the hypothermia after amphetamine-acetyl-taurinate interaction according to the invention was made according to the same method as previously in the mouse, the animals being treated simultaneously with 30 mg/kg (IP) of dextrorotatory amphetamine and with an optimal dose of the product to be tested.
(§6) 6. A test was also made of the appetite- and thirst-depressant activities in the rat.

[2] = Test of morphinic agitation in mice; assay type: in vivo, mouse; conditions: for effect type in the morphinic agitation test: 5-day treatment, 100, 500 and 2500 mg/Kg per os
Source text: Furthermore, the neuro-muscular activity of the lithium N-acetyltaurinate has been evaluated in comparison with that of taurine and of the other salts of N-acetyltaurine, using the test of morphinic agitation.

[3] = Appetite- and thirst-depressant activities in the rat; assay type: in vivo
Source text: as §6

[4] = Minimum lethal dose by intravenous route in male rabbits; assay type: in vivo, male rabbit
Description: This reduction of acute toxicity was confirmed by the evaluation of the minimum lethal dose by intraveinous route in male rabbits, comparatively beween lithium citrate and lithium N-acetyltaurinate:
In the same experimental conditions, the minimum lethal dose is 42 mg of lithium with lithium citrate, and 204 mg lithium with lithium N-acetyltaurinate.

[5] = Investigation behaviour of the mouse, "Holed board" test; assay type: in vivo
Source text: as §1

[6] = Chronic toxicity in rats over three months, renal histology; assay type: in vivo, rat
Description: A study of the chronic toxicity in rats was conducted comparatively between lithium N-acetyltaurinate and lithium carbonate:
For three months, rats received doses of 8 mg/Kg and 24 mg/Kg per day of lithium, first in the form or lithium carbonate, and in the form of lithium N-acetyltaurinate.

[7] = Motility of mice after amphetamine-acetyl-taurinate interaction (photoelectric actimeter); assay type: in vivo; conditions: mouse, with 10 mg/kg IP dextrorotatory amphetamine
Description: as §3

[8] = Acute toxicity (LD50) in the male mouse, intraperitoneal and oral routes
Source text: The acute toxicity of the compounds according to the invention was studied by the intraperitoneal route in the male mouse. The results obtained were as follows:
The value of lithium salts in the treatment of depressions and in particular of manic-depressive psychosis, is well-known. But the major disadvantage of this therapy resides in the toxicity of the currently known salts (carbonate, citrate, gluconate).

[9] = in vivo
[10] = Spontaneous motility of the mouse, Boissier's photoelectric actimeter; assay type: in vivo
Source text: as §2

[11] = Hypothermia in the mouse (rectal temperature); assay type: in vivo; conditions: for hypothermia / reduction in the rectal temperature: intraperitoneal
Description: as §4

[12] = Hypothermia after amphetamine-acetyl-taurinate interaction in the mouse; assay type: in vivo
Description: as §5

[13] = Human observation: chronic alcoholism with predelirium; assay type: in vivo
Source text: (§7) A person . . . […] 2 suicide attempts. Predominance of psychomotive inhibition. […] a person . . .

[14] = Human observation: bipolar manic-depressive psychosis, lithemia and mood; conditions: one patient
[15] = Human observation: neuromuscular hyperexcitability; assay type: in vivo
Source text: The following observation is given by way of example: a person has been treated for 7 years for a neuromuscular hyperexcitability,with a wide range of neuro-vegetative disorders. They present critical phenomena of lipothymia type, anxious crises with paroxysmal tachycardia. They have had four grand mal epileptic crises.
as §7

[16] = listed as N-acetyl-taurinate of lithium
[17] = listed as N-acetyl-taurinate of potassium
[18] = listed as N-acetyltaurinate of calcium

NCCS(=O)(=O)O [taurine]
neuro-muscular activity in six tests [1]: without any activity | effect type in the morphinic agitation test [2]: no effect

CC(=O)NCCS(=O)(=O)O [Example 3, N-acetyl-taurinate of lithium]
appetite- and thirst-depressant actions [3]: very clear appetite- and thirst-depressant actions | taking of food and drink consumed [3]: very substantial reduction | minimum lethal dose [4]: 204 mg of lithium | investigation behaviour / exploratory activity [5, 16]: very clear increase | toxicity with respect to lithium carbonate (acute and chronic renal) ([6]; conclusion from acute and chronic toxicity studies): less toxic | tubular renal lesions thirty days after the treatment has stopped ([6]; rat, in vivo): a reversion of the lesions is noted in all the animals | amphetaminic excitation [7, 16]: increase | acute toxicity compared with that of lithium carbonate ([8]; male mice, intraperitoneal and oral routes): clearly reduced acute toxicity | LD50 ([8]; mouse, in vivo, ip, LD50): 3880 mg/kg | LD50 ([8]; mouse, in vivo, ip, LD50 in the male mouse, intraperitoneal route): 155 mg/kg | LD50 ([8]; mouse, in vivo, po, LD50): 6630 mg/kg | LD50 ([8]; mouse, in vivo, po, LD50 in the male mouse): 266 mg/kg | stability of the mood [9]: same stability of the mood | motility in free condition [10]: very clear increase | motive agitation ([10]; dose not stated, listed as N-acetyl-taurinate of lithium): increase | hypothermia / reduction in the rectal temperature [11, 16]: significant hypothermia | potentiation of the morphinic agitation ([2]; 100 mg/Kg per os, between the 75th and the 90th minute): 45% | effect type in the morphinic agitation test ([2]; listed as lithium acetyltaurinate): biphasic effect | effect on the agitation caused by morphine sulphate ([2]; stronger doses (500 and 2500 mg/Kg) per os): antagonistic effect | hypothermia after simultaneous injection of amphetamine ([12]; with 30 mg/kg IP dextrorotatory amphetamine): completely eliminated

CC(=O)NCCS(=O)(=O)O [Example 2, N-acetyl-taurinate of potassium]
neuro-muscular activity in six tests [1]: neuro-muscular activity has been demonstrated | investigation behaviour / exploratory activity [5, 17]: increase in the investigation behaviour in the mouse, not proportional to the dose | amphetaminic excitation [7, 17]: reduction | LD50 ([8]; intraperitoneal route, male mouse, mg of compound, listed as N-acetyltaurinate of potassium): 3234 mg/kg | LD50 ([8]; oral route, male mouse, mg of compound, listed as N-acetyltaurinate of potassium): 8170 mg/kg | motive agitation ([10]; dose not stated, listed as N-acetyl-taurinate of potassium): slight increase

CC(=O)NCCS(=O)(=O)O [Example 5, N-acetyl-taurinate of calcium]
investigation behaviour / exploratory activity [5, 18]: increase | amphetaminic excitation [7, 18]: does not modify | LD50 ([8]; intraperitoneal route, male mouse, mg of compound, listed as N-acetyltaurinate of calcium): 1604 mg/kg | LD50 ([8]; oral route, male mouse, mg of compound, listed as N-acetyltaurinate of calcium): 13230 mg/kg | motive agitation ([10]; low dose (100 mg/kg), listed as N-acetyltaurinate of calcium, 100 mg/kg): reduction | hypothermia / reduction in the rectal temperature [11, 18]: significant reduction | effect type in the morphinic agitation test ([2]; listed as Ca): mono-phasic effect, antagonistic to the morphinic agitation even in small doses | alcoholic weaning ([13]; 1.5 g daily oral): upkept | intellectual efficiency ([13]; 1.5 g daily oral): improved | tremblings ([13]; 1.5 g daily oral): considerably reduced | effect on attack of mental aberration with convulsions ([13]; venous perfusion 1 g per hour for three hours): sedation of the attack with a state of euphoria | hyperthermia ([12]; amphetamine interaction): does not modify

O=C(O)O [Lithium carbonate, reference compound]
tubular renal lesions (histological study) ([6]; rats, 8 and 24 mg/Kg per day of lithium, three months): tubular renal lesions appear in all the treated animals | tubular renal lesions thirty days after the treatment has stopped ([6]; rats, dose of 24 mg of lithium per Kg, 30 days after stop): the lesions persist | lithemia ([14]; 1 g/day): ≤ 0.5 meq/liter | signs of intolerance ([14]; increased dose): permanent tremblings: nauseas, vomitings, hypotension | stability of the mood [14]: a stability of the mood is obtained | LD50 ([8]; mouse, in vivo, ip): 88 mg/kg | LD50 ([8]; mouse, in vivo, po): 162 mg/kg

O=C([O-])[C@H](O)[C@@H](O)[C@H](O)[C@H](O)CO.[Li+] [lithium gluconate, reference compound]
effect on the morphinic agitation relative to lithium acetyltaurinate at 100 mg/Kg ([2]; potentiation in small doses): comparable

O=C(O)CC(O)(CC(=O)O)C(=O)O [lithium citrate, reference compound]
minimum lethal dose [4]: 42 mg of lithium

CC(=O)NCCS(=O)(=O)O [Example 4, N-acetyl-taurinate of magnesium]
amphetaminic excitation ([7]; listed as N-acetyl-taurinate of magnesium): reduction | LD50 ([8]; intraperitoneal route, male mouse, mg of compound, listed as N-acetyltaurinate of magnesium): 1709 mg/kg | LD50 ([8]; oral route, male mouse, mg of compound, listed as N-acetyltaurinate of magnesium): 17400 mg/kg | general state of the patient ([15]; venous perfusion 1 g first ten days with 1.5 g/day per os): complete recovery of the general state | critical phenomena ([15]; verified with a recession of 13 months): disappearance of the critical phenomena | motive agitation ([10]; high dose (200 mg/kg)): very clear reduction | motive agitation ([10]; low dose (100 mg/kg), listed as N-acetyl-taurinate of magnesium, 100 mg/kg): increase | reduction in the maximum rectal temperature ([11]; 2 hours after the injection): very considerable reduction | effect type in the morphinic agitation test ([2]; listed as Mg): mono-phasic effect, antagonistic to the morphinic agitation even in small doses | reduction of rectal temperature after simultaneous injection of amphetamine ([12]; with amphetamine, 1 hour after the injection): completely eliminated
